In patent EP4644377A1, “LIPID COMPOUND FOR GENE DELIVERY AND LIPID NANOPARTICLE COMPRISING SAME” (NANJING CYBERNAX BIOMEDICAL TECHNOLOGY CO., LTD., priority 2022, dated 2024):

Tests used:
C57Bl/6 mice = test: Luciferase mRNA delivery in mice, IVIS chemiluminescence; assay type: in vivo
Protocol: The animal experiments were reviewed and approved by the Ethics Committee of Zhejiang Medical College and the Ethics Committee of Zhejiang University of Technology. 6- to 8-week-old male C57Bl/6 mice were randomly grouped with 3 mice in each group. The mice in each group received a lipid nanoparticle coating mRNA expressing a luciferase via tail vein injection at a dose of 0.25 mg/kg mouse body weight (calculated by the mass of coated mRNA). […] The mRNA delivery effect of the lipid nanoparticle is quantitatively compared through a total chemiluminiscence quantity (Total Flux p/s) of a mouse whole body within unit time (shown in Table 5).
Table 13 and Table 14 show whole body chemiluminescent signals when LNPs (formulation 2) composed of the lipids in some examples deliver Flue mRNA in mice. The delivery dose of Flue mRNA was 0.25 mg/kg. 6 h after LNP injection, 150 mg/kg of D-luciferin was intraperitoneally injected into the mice, and then the whole body chemiluminescent signals were collected in the IVIS imaging system after 10 min. […]

[1] = Particle size detection of LNP (Brookhaven NanoBrook Omni, DLS); assay type: physicochemical; details: LNPs after coating mRNA (luciferase)
Protocol: Step 1. Preparation of a lipid solution and a nucleic acid solution: unless otherwise specified, all aqueous solutions involved in examples were prepared from deionized water without nucleases. An ionizable lipid, a phospholipid (disaturated phosphatidylcholine (DSPC) or dioleoylphosphatidylethanolamine (DOPE)), cholesterol and a PEG lipid (DMG-PEG2000) were mixed in a molar ratio of 50/10/38.5/1.5 (containing DSPC, formulation 1) or 36.5/16/46.5/2.5 (containing DOPE, formulation 2) and dissolved into an ethanol solution. Meanwhile, a nucleic acid (a mass ratio of ionizable lipid/nucleic acid was 10/1) was dissolved into a citrate buffer solution of pH=3, so that a final volume ratio of the ethanol solution to the citrate solution was 1/3.
Step 2. Preparation of LNP by mixing the lipid solution with the nucleic acid solution: the lipid ethanol solution and the nucleic acid aqueous solution that were prepared in Step 1 were respectively put into a sterile syringe and placed in a Precision Nanosystem Ignite instrument, the extrusion flow speeds of the ethanol solution and the water phase solution were respectively set as 3 ml/min and 9 ml/min in instrument program settings. A microfluidic chip was inserted into the instrument and LNP preparation was initiated, and then a solution mixed by the chip was collected.
Step 2.1. Preparation of an LNP solution coating nucleic acid in a porous plate: a solution of an ionizable lipid, a phospholipid (DSPC or DOPE), cholesterol and a PEG lipid (DMG-PEG2000) in ethanol was added into each well of a 96-well deep plate, so that a molar ratio of four component lipids in each well was 50/10/38.5/1.5 (containing DSPC, formulation 1) or 36.5/16/46.5/2.5 (containing DOPE, formulation 2). Then, a citrate buffer solution (pH=3, the mass of nucleic acid added into each well was 1/10 that of the ionizable lipid in this well) that was three times as ethanol in volume and dissolved with a nucleic acid molecule was quickly added into the well plate through a multi-channel pipette or an automatic liquid dispensing system and rapidly mixed, so as to obtain the LNP solution coating nucleic acid.
Step 3. Purification of the LNP solution: the LNP solution collected in Step 2 or Step 2.1 was subjected to dialysis-concentration-filtration operations, so as to obtain a final LNP solution coating nucleic acid for subsequent testing.
The LNP solution coating nucleic acid obtained in Step 3 was diluted so that the final lipid concentration was between 0.01 mg/ml and 0.1 mg/ml. The diluted solution was added into a sample reservoir, and then subjected to particle size detection in a Brookhaven NanoBrook Omni instrument.

[2] = LNPs (formulation 2), Flue mRNA 0.25 mg/kg, tail vein injection, whole body signal 6 h after LNP injection, 10 min after 150 mg/kg D-luciferin i.p.
[3] = LNP formulation 2 (SM102: formulation 1), luciferase mRNA 0.25 mg/kg, tail vein, C57Bl/6 mice, whole body signal 6 h after LNP, 10 min after D-luciferin 150 mg/kg i.p.

PDI [1] | Particle size [1] [nm·days] | Compound | Chemiluminescent signal (p/s) (C57Bl/6 mice; [2]) | Chemiluminescent signal (p/s) (C57Bl/6 mice; [3]) | delivery efficiency in mRNA mouse in vivo delivery (C57Bl/6 mice; result in words)
0.26 | 128.73 ± 1.97 | CCCCCCCC/C=C\CCCCCCCCNC(=O)C(N(CCCN(C)C)C(=O)CCCCCCC/C=C\C[C@H](O)CCCCCC)C(C)(C)C (stereo partly drawn) [Lipid 16] | – | 6.94E+09 | –
0.19 | 190.71 ± 1.15 | CCCCCCCC/C=C\CCCCCCCCOC(=O)CCC(=O)N(CCCN(C)C)C(C(=O)NCCCC(=O)OCCCCCCCC)C(C)(C)C (stereo not drawn) [Lipid 223] | – | 1.26E+10 | –
0.19 | 204.35 ± 3.72 | CCCCCCCCCCCC(=O)N(CCCN(C)CCCCO)C(C(=O)NCCCCCCCC(=O)OC(CCCCCCCC)CCCCCCCC)C(C)(C)C (stereo not drawn) [Lipid 240] | – | 5.76E+08 | –
0.19 | 207.34 ± 2.23 | CCCCCCCC/C=C\CCCCCCCCOC(=O)CCC(=O)N(CCCN(CC)CC)C(C(=O)NCCCC(=O)OCCCCCCCC)C(C)(C)C (stereo not drawn) [Lipid 226] | – | 9.30E+09 | –
0.22 | 136.93 ± 2.95 | CCCCCCCCCCCCCCNC(=O)C(N(CCCN(CC)CC)C(=O)CCCCCCCCCCCCC)C(C)(C)C (stereo not drawn) [Lipid 159] | – | 2.30E+09 | –
0.19 | 204.79 ± 3.09 | CCCCC/C=C\C/C=C\CCCCCCCC(=O)N(CCN(C)CCO)C(C(=O)NCCCCCCCCCCCCCC)C(C)(C)C (stereo not drawn) [Lipid 195] | – | 1.43E+09 | –
0.14 | 234.57 ± 1.84 | CCCCCCCCCCCC(=O)N(CCCN(CC)CC)C(C(=O)NCCCCCCCC(=O)OC(CCCCCCCC)CCCCCCCC)C(C)(C)C (stereo not drawn) [Lipid 237] | – | 3.86E+09 | –
0.23 | 201.12 ± 47.7 | CCCCC/C=C\C/C=C\CCCCCCCC(=O)N(CCCN(CC)CC)C(C(=O)NCCCCCCCCCCCCCC)C(C)(C)C (stereo not drawn) [Lipid 160] | – | 1.07E+10 | –
0.18 | 178.88 ± 3.61 | CCCCC/C=C\C/C=C\CCCCCCCC(=O)N(CCCN(C)C)C(C(=O)NCCCCCCCC(=O)OC(CCCCCCCC)CCCCCCCC)C(C)(C)C (stereo not drawn) [Lipid 175] | – | 7.07E+09 | high delivery efficiency
– | – | CCCCCCCC/C=C\CCCCCCCCNC(=O)C(C1CCCCC1)N(CCN1CCN(C)CC1)C(=O)CCCCCCCCCCC (stereo not drawn) [Lipid 60] | – | 4.10E+07 | –
– | – | CCCCCCCCC(CCCCCCCC)OC(=O)CCCCCCCNC(=O)C(N(CCCN(CC)CC)C(=O)CCCCCCC/C=C\C[C@H](O)CCCCCC)C(C)(C)C (stereo partly drawn) [Lipid 181] | – | 3.86E+09 | –
0.17 | 200.94 ± 5.63 | CCCCCCCCCCCC(=O)N(CCCN(C)C)C(C(=O)NCCCOC(=O)CCCCCCCC)C(C)(C)C (stereo not drawn) [Lipid 163] | – | 1.73E+09 | –
0.17 | 240.23 ± 1.39 | CCCCCCCCCCCC(=O)N(CCCN(C)C)C(C(=O)NCCCCCCCC(=O)OC(CCCCCCCC)CCCCCCCC)C(C)(C)C (stereo not drawn) [Lipid 234] | – | 1.16E+10 | –
– | – | CCCCCCCC/C=C\CCCCCCCCNC(=O)C(N(CCCN(CC)CC)C(=O)CCCCCCCCCCC)C(C)(C)C (stereo not drawn) [Lipid 30] | – | 1.35E+08 | –
– | – | CCCCCCCCCCCC(=O)N(CCCN(CC)CC)C(C(=O)NCCCCCCCC(=O)OC(CCCCCCCC)CCCCCCCC)C(C)(C)C (stereo not drawn) [Lipid 178] | – | 9.50E+08 | –
– | – | CCCCC/C=C\C/C=C\CCCCCCCC(=O)N(CCCN(C)C)C(C(=O)NCCCCCCOC(=O)C(CCCCCC)CCCCCCCC)C(C)(C)C (stereo not drawn) [Lipid 285] | – | 2.91E+10 | –
– | – | CCCCC/C=C\C/C=C\CCCCCCCC(=O)N(CCCN(C)C)C(C(=O)NCCCC(=O)OCCCCCCCC/C=C\CCCCCCCC)C(CC)CC (stereo not drawn) [Lipid 108] | – | 4.23E+09 | –
0.27 | 261.64 ± 5.92 | CC/C=C\C/C=C\C/C=C\C/C=C\C/C=C\CCCC(=O)N(CCCN(CC)CC)C(C(=O)NCCCCCCCCCCCCCC)C(C)(C)C (stereo not drawn) [Lipid 162] | – | 6.66E+09 | –
0.19 | 188.99 ± 4.55 | CCCCCCCCCCCCCC(=O)N(CCCN(C)CCO)C(C(=O)NCCCCCCCCCCCC)C(C)(C)C (stereo not drawn) [Lipid 189] | – | 3.32E+08 | –
– | – | CCCCC/C=C\C/C=C\CCCCCCCC(=O)N(CCCN(CC)CC)C(C(=O)NCCCOC(=O)CCCCCCCC)C(C)(C)C (stereo not drawn) [Lipid 170] | – | 5.52E+08 | –
– | – | CCCCCCCCCCCCCC(=O)N(CCCN(C)C)C(CC)C(=O)NCCCCCCOC(=O)C(CCCCCC)CCCCCCCC (stereo not drawn) [Lipid 1041] | 3.31E+06 | – | –

Compound | PDI [1] | Particle size [1] [nm·days] | Chemiluminescent signal (p/s) (C57Bl/6 mice; [2]) | Chemiluminescent signal (p/s) (C57Bl/6 mice; [3]) | delivery efficiency in mRNA mouse in vivo delivery (C57Bl/6 mice; result in words)
CCCCCCCCC(CCCCCC)COC(=O)CCCCCCC(=O)N(CCCN(C)C)C(C(=O)NCCCCCCCC(=O)OC(CC)CCCCCCCC)C(C)(C)C (stereo not drawn) [Lipid 431] | 0.26 | 114 ± 2.51 | 5.11E+10 | – | –
CCCCC/C=C\C/C=C\CCCCCCCC(=O)N(CCCN(C)C)C(C)C(=O)NCCCCCCCC(=O)OC(CCCCCCCC)CCCCCCCC (stereo not drawn) [Lipid 949] | 0.19 | 115.8 ± 0.26 | 6.88E+05 | – | –
CCCCCCCCC(CC)OC(=O)CCCCCCCNC(=O)C(N(CCCN(C)C)C(=O)CCCCCCC(=O)OC(CC)CCCCCCCC)C(C)(C)C (stereo not drawn) [Lipid 401] | 0.19 | 93.6 ± 0.84 | 5.92E+10 | – | –
CCCCC/C=C\C/C=C\CCCCCCCC(=O)N(CCCN(C)C)C(C(=O)NCCCCCCCC(=O)OC(CCCCCCCC)CCCCCCCC)C(C)C (stereo not drawn) [Lipid 942] | 0.25 | 135.8 ± 2.13 | 8.15E+08 | – | –
CCCCCCCC(C)COC(=O)CCCCCCCNC(=O)C(N(CCCN(C)C)C(=O)CCCCCCCCCC(=O)OC(CCCCCC)CCCCCC)C(C)(C)C (stereo not drawn) [Lipid 409] | 0.25 | 95 ± 0.75 | 3.08E+10 | – | –
CCCCCCCCC(CC)OC(=O)CCCCCCCNC(=O)C(N(CCCN(C)C)C(=O)CCCCCCCCCC(=O)OC(CCCCCC)CCCCCC)C(C)(C)C (stereo not drawn) [Lipid 407] | 0.18 | 97.4 ± 0.64 | 8.00E+10 | – | –
CCCCCCCCC(CCCCCCCC)OC(=O)CCCCCCCNC(=O)C(N(CCCN(C)C)C(=O)CCCCCCC(=O)OCC(C)CCCCCCC)C(C)(C)C (stereo not drawn) [Lipid 420] | 0.22 | 110.3 ± 1.65 | 6.69E+09 | – | –
CCCCCCCCC(CCCCCC)C(=O)OCCCCCCC(=O)N(CCCN(C)C)C(C(=O)NCCCCCCCC(=O)OCC(C)CCCCCCC)C(C)(C)C (stereo not drawn) [Lipid 445] | 0.24 | 94.7 ± 0.95 | 2.15E+09 | – | –
CCCCCCCCC(CC)OC(=O)CCCCCCC(=O)N(CCCN(C)C)C(C(=O)NCCCCCCOC(=O)C(CCCCCC)CCCCCCCC)C(C)(C)C (stereo not drawn) [Lipid 406] | 0.17 | 95.9 ± 0.75 | 1.04E+11 | – | –
CCCCCCCCC(CCCCCCCC)OC(=O)CCCCCCCNC(=O)C(N(CCCN(C)C)C(=O)CCCCCCCCCC(=O)OC(CCCCCC)CCCCCC)C(C)(C)C (stereo not drawn) [Lipid 408] | 0.18 | 101.7 ± 5.09 | 1.03E+11 | – | –
CCCCCCCCC(CC)OC(=O)CCCCCCC(=O)N(CCCN(C)C)C(C(=O)NCCCCCCCC(=O)OC(CCCCCCCC)CCCCCCCC)C(C)(C)C (stereo not drawn) [Lipid 402] | 0.25 | 84.3 ± 3.42 | 4.20E+10 | – | –
